{
  "source": "ChEMBL document CHEMBL1153026",
  "about": "“Cytotoxic 3,4-seco-cycloartane triterpenes from Gardenia sootepensis” (J Nat Prod, 2009)",
  "key": {"BT-474": {"tested_on": "BT-474", "assay": "Cytotoxicity against human BT474 cells after 3 days by MTT assay", "assay_type": "functional, cell-based", "settings": "BT-474, 72 h"}, "[1]": {"assay": "Cytotoxicity against human KATO III cells after 3 days by MTT assay", "assay_type": "functional, cell-based, KATO III cell", "settings": "72 h"}, "SW-620": {"tested_on": "SW-620", "assay": "Cytotoxicity against human SW620 cells after 3 days by MTT assay", "assay_type": "functional, cell-based", "settings": "SW-620, 72 h"}, "HepG2": {"tested_on": "HepG2", "assay": "Cytotoxicity against human HepG2 cells after 3 days by MTT assay", "assay_type": "functional, cell-based", "settings": "HepG2, 72 h"}, "[2]": {"assay": "Cytotoxicity against human ChaGo cells after 3 days by MTT assay", "assay_type": "functional, cell-based", "settings": "72 h"}},
  "data": [
    {"smiles": "C=C(CO)[C@@H]1CC[C@@H]2[C@]3(CC[C@]4(C)[C@@H]([C@H](C)CC/C=C(\\C)C=O)CC[C@@]24C)C[C@]13CCC(=O)OC", "note": "[SOOTEPIN D]", "values": [
      {"measurement": "IC50", "setting": "BT-474", "value": "> 10", "unit": "µg/mL"},
      {"measurement": "IC50", "setting": "[1]", "value": 7.35, "unit": "µg/mL"},
      {"measurement": "IC50", "setting": "SW-620", "value": "> 10", "unit": "µg/mL"},
      {"measurement": "IC50", "setting": "HepG2", "value": "> 10", "unit": "µg/mL"},
      {"measurement": "IC50", "setting": "[2]", "value": "> 10", "unit": "µg/mL"}
    ]},
    {"smiles": "C=C1C(=O)O[C@H]2C[C@@H]3[C@@]4(CC[C@]5(C)[C@H]([C@@H](C)CC/C=C(\\C)C=O)CC[C@@]35C)C[C@]4(CCC(=O)OC)[C@@H]12", "note": "[CORONALOLIDE METHYL ESTER]", "values": [
      {"measurement": "IC50", "setting": "BT-474", "value": "> 10", "unit": "µg/mL"},
      {"measurement": "IC50", "setting": "[1]", "value": 8.64, "unit": "µg/mL"},
      {"measurement": "IC50", "setting": "SW-620", "value": 6.19, "unit": "µg/mL"},
      {"measurement": "IC50", "setting": "HepG2", "value": 6.8, "unit": "µg/mL"},
      {"measurement": "IC50", "setting": "[2]", "value": "> 10", "unit": "µg/mL"}
    ]},
    {"smiles": "C=C1C(=O)O[C@@H]2C[C@@H]3[C@]4(CC[C@]5(C)[C@@H]([C@H](C)CCC=C(C)C)CC[C@@]35C)C[C@]4(CCC(=O)OC)[C@H]12", "note": "[TUBIFEROLIDE METHYL ESTER]", "values": [
      {"measurement": "IC50", "setting": "BT-474", "value": 5.33, "unit": "µg/mL"},
      {"measurement": "IC50", "setting": "[1]", "value": 4.9, "unit": "µg/mL"},
      {"measurement": "IC50", "setting": "SW-620", "value": 5.78, "unit": "µg/mL"},
      {"measurement": "IC50", "setting": "HepG2", "value": 3.41, "unit": "µg/mL"},
      {"measurement": "IC50", "setting": "[2]", "value": 4.08, "unit": "µg/mL"}
    ]},
    {"smiles": "C=C(C)[C@@H]1CC[C@@H]2[C@]3(CC[C@]4(C)[C@@H]([C@H](C)CCC=C(C)C)CC[C@@]24C)C[C@]13CCC(=O)O", "note": "[SOOTEPIN E]", "values": [
      {"measurement": "IC50", "setting": "BT-474", "value": 6.07, "unit": "µg/mL"},
      {"measurement": "IC50", "setting": "[1]", "value": 1.91, "unit": "µg/mL"},
      {"measurement": "IC50", "setting": "SW-620", "value": 4.22, "unit": "µg/mL"},
      {"measurement": "IC50", "setting": "HepG2", "value": 3.14, "unit": "µg/mL"},
      {"measurement": "IC50", "setting": "[2]", "value": 5.2, "unit": "µg/mL"}
    ]},
    {"smiles": "COc1cccc2c1C(=O)c1c(O)c3c(c(O)c1C2=O)C[C@@](O)(C(=O)CO)C[C@@H]3O[C@H]1C[C@H](N)[C@H](O)[C@H](C)O1", "note": "[DOXORUBICIN]", "values": [
      {"measurement": "IC50", "setting": "BT-474", "value": 8.92, "unit": "µg/mL"},
      {"measurement": "IC50", "setting": "[1]", "value": 5.45, "unit": "µg/mL"},
      {"measurement": "IC50", "setting": "SW-620", "value": "> 10", "unit": "µg/mL"},
      {"measurement": "IC50", "setting": "HepG2", "value": 3.36, "unit": "µg/mL"},
      {"measurement": "IC50", "setting": "[2]", "value": 3.98, "unit": "µg/mL"}
    ]},
    {"smiles": "C=C1C(=O)O[C@@H]2C[C@@H]3[C@]4(CC[C@]5(C)[C@@H]([C@H](C)CCC=C(C)C)CC[C@@]35C)C[C@]4(CCC(=O)O)[C@H]12", "note": "[SOOTEPIN B]", "values": [
      {"measurement": "IC50", "setting": "BT-474", "value": 4.98, "unit": "µg/mL"},
      {"measurement": "IC50", "setting": "[1]", "value": 3.68, "unit": "µg/mL"},
      {"measurement": "IC50", "setting": "SW-620", "value": 5.57, "unit": "µg/mL"},
      {"measurement": "IC50", "setting": "HepG2", "value": 5.86, "unit": "µg/mL"},
      {"measurement": "IC50", "setting": "[2]", "value": 5.24, "unit": "µg/mL"}
    ]},
    {"smiles": "C=C1C(=O)O[C@@H]2C[C@@H]3[C@]4(CC[C@]5(C)[C@@H]([C@H](C)CC/C=C(\\C)C=O)CC[C@@]35C)C[C@]4(CCC(=O)O)[C@H]12", "note": "[CORONALOLIDE]", "values": [
      {"measurement": "IC50", "setting": "BT-474", "value": 6.59, "unit": "µg/mL"},
      {"measurement": "IC50", "setting": "[1]", "value": 5.85, "unit": "µg/mL"},
      {"measurement": "IC50", "setting": "SW-620", "value": 4.98, "unit": "µg/mL"},
      {"measurement": "IC50", "setting": "HepG2", "value": 6.41, "unit": "µg/mL"},
      {"measurement": "IC50", "setting": "[2]", "value": 5.42, "unit": "µg/mL"}
    ]},
    {"smiles": "C=C(CO)[C@@H]1CC[C@@H]2[C@]3(CC[C@]4(C)[C@@H]([C@H](C)CCC=C(C)C)CC[C@@]24C)C[C@]13CCC(=O)OC", "note": "[SOOTEPIN C]", "values": [
      {"measurement": "IC50", "setting": "BT-474", "value": "> 10", "unit": "µg/mL"},
      {"measurement": "IC50", "setting": "[1]", "value": 7.79, "unit": "µg/mL"},
      {"measurement": "IC50", "setting": "SW-620", "value": "> 10", "unit": "µg/mL"},
      {"measurement": "IC50", "setting": "HepG2", "value": 3.49, "unit": "µg/mL"},
      {"measurement": "IC50", "setting": "[2]", "value": "> 10", "unit": "µg/mL"}
    ]},
    {"smiles": "C=C(CO)[C@@H]1CC[C@H]2[C@]3(CC[C@]4(C)[C@@H]([C@H](C)CCC=C(C)C)CC[C@@]24C)C[C@]13CCC(=O)O", "note": "[SECAUBRYENOL]", "values": [
      {"measurement": "IC50", "setting": "BT-474", "value": "> 10", "unit": "µg/mL"},
      {"measurement": "IC50", "setting": "[1]", "value": "> 10", "unit": "µg/mL"},
      {"measurement": "IC50", "setting": "SW-620", "value": "> 10", "unit": "µg/mL"},
      {"measurement": "IC50", "setting": "HepG2", "value": "> 10", "unit": "µg/mL"},
      {"measurement": "IC50", "setting": "[2]", "value": "> 10", "unit": "µg/mL"}
    ]},
    {"smiles": "C=C1C(=O)O[C@@H]2C[C@@H]3[C@]4(CC[C@]5(C)[C@@H]([C@H](C)CC/C=C(\\C)CO)CC[C@@]35C)C[C@]4(CCC(=O)OC)[C@H]12", "note": "[SOOTEPIN A]", "values": [
      {"measurement": "IC50", "setting": "BT-474", "value": 5.92, "unit": "µg/mL"},
      {"measurement": "IC50", "setting": "[1]", "value": 2.1, "unit": "µg/mL"},
      {"measurement": "IC50", "setting": "SW-620", "value": 1.8, "unit": "µg/mL"},
      {"measurement": "IC50", "setting": "HepG2", "value": 2.9, "unit": "µg/mL"},
      {"measurement": "IC50", "setting": "[2]", "value": 3.97, "unit": "µg/mL"}
    ]}
  ]
}
